In series [1] the target is T1, aryl hydrocarbon receptor (Homo sapiens, UniProt P35869).
T1 construct: HepG2 cells transiently transfected with the pGudLuc8.1 plasmid were thawed and 25,000 cells were plated per well; endogenous in cells; host or cells: HepG2
T1 sequence (P35869 11-848): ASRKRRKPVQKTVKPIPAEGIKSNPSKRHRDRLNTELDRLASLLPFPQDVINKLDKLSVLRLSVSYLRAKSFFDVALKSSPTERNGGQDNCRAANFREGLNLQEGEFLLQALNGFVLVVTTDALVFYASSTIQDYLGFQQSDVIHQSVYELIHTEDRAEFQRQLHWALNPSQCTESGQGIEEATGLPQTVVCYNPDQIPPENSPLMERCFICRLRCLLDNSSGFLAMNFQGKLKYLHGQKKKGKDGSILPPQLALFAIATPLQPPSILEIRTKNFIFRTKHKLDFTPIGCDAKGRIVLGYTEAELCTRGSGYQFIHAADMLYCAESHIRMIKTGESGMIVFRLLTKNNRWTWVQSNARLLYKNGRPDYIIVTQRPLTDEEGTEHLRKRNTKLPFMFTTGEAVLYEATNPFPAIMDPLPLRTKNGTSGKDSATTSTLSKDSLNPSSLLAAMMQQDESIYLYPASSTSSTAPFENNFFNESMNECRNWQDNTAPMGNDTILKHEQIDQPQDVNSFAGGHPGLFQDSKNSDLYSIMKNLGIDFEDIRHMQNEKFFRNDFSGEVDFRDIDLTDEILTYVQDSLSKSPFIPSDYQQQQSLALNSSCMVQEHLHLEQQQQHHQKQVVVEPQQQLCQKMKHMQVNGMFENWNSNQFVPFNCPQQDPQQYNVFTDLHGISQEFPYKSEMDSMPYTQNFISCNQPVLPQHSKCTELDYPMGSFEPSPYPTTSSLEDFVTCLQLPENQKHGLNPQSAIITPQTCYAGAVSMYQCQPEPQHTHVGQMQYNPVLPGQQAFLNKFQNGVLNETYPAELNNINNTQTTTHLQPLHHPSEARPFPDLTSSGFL
Briefly: Aryl hydrocarbon receptor-driven luciferase reporter in transiently transfected HepG2 cells (Example 3). The class given is cell-based. The following applies: absence (FIG. 1) or presence (FIG. 2) of agonist VAF347 (80 nM), luciferase six hours after plating. As for the experimental part: Experimental details for this experiment are reported in Example 3, below.
To determine the ability of compounds (5) and (16) to inhibit the activity of the aryl hydrocarbon receptor and to induce the proliferation of hematopoietic stem cells, a series of HSC expansion experiments were conducted. In the first experiment, compounds (5) and (16) were assessed for their capacity to attenuate aryl hydrocarbon receptor signaling. To this end, HepG2 hepatocytes were transiently transfected with a luciferase reporter construct under the control of a promoter responsive to aryl hydrocarbon receptor signal transduction. The cells were plated at a density of 25,000 cells per well in a microtiter plate. The HepG2 cells were immediately treated with compound (5) or (16) in the absence (FIG. 1) or presence (FIG. 2) of the aryl hydrocarbon receptor agonist, VAF347 (80 nM). Luciferase activity was subsequently analyzed six hours after plating.
In general terms: In a reporter assay the amount or activity of a reporter protein is the signal.

In series [2] the target is T2, aryl hydrocarbon receptor (AHR) (Homo sapiens, UniProt P35869).
T2 construct: HepG2 cells transiently transfected with the pGudLuc8.1 plasmid were thawed and 25,000 cells were plated per well; endogenous in cells; host or cells: HepG2
T2 sequence (P35869 11-848): T1 sequence (P35869 11-848)
Briefly: AHR antagonist assay: luciferase reporter in HepG2 cells transiently transfected with pGudLuc8.1. The conditions noted are these: HepG2 cells, 25,000 cells per well, luciferase activity 24 hours post-culture. The class given is cell-based. As for the experimental part:
To determine the activity of a scale-up batch of Compound (24), individual enantiomers, and two derivatives Compound (27) and Compound (28) were evaluated for AHR antagonist activity. The compounds were compared to control AHR antagonist SR1, an additional control AHR antagonist, and stored sample of Compound (24)
Methods—HepG2 cells transiently transfected with the pGudLuc8.1 plasmid were thawed and 25,000 cells were plated per well and immediately treated the AHR agonist VAF347 (fixed at 40 nM) and/or the indicated AHR antagonists. Luciferase activity was measured 24 hours post-culture, corresponding to endogenous AHR antagonist activity (without VAF347, FIG. 8) or in the presence of VAF347 (FIG. 9). All synthesized compounds show equivalent AHR antagonist activity if not greater than SR1.

Like-named read-outs stand apart in the source and are kept apart here.

The EC50 is the concentration at which the effect is half-maximal.

Turning to `CCC(C)c1cnc2c(NCCc3c[nH]c4ccccc34)cc(-c3cncc(F)c3)cn12` (stereo not shown) [Compound (5)], the “suppression of aryl hydrocarbon receptor activity (luciferase)” value in series [1] is reported as “capable of suppressing aryl hydrocarbon receptor activity even in the presence of the activator VAF347”.

Consider `CC(C)n1cnc2c(NCCc3ccc(O)cc3)nc(-c3csc4ccccc34)nc21` [SR1], for which the concentration giving a half-maximal response (EC50) in series [2] (AHR agonist VAF347 fixed at 40 nM, read-out: AHR Antagonist Activity in the Presence of VAF347 EC50) was 193 nM; in series [2] (without VAF347, read-out: Endogenous AHR Antagonist Activity EC50) it was 33 nM. Consider `CCC(C)c1cnc2c(NCCc3c[nH]c4ccccc34)nc(-c3cncc(F)c3)cn12` (stereo not shown) [Compound (16)], for which, in series [1], the “suppression of aryl hydrocarbon receptor activity (luciferase)” value is reported as “capable of suppressing aryl hydrocarbon receptor activity even in the presence of the activator VAF347”.

The record behind these values is US20210379033A1, “METHODS OF TREATING CANCER WITH ARYL HYDROCARBON RECEPTOR ANTAGONISTS” (Magenta Therapeutics Inc., priority 2018, published 2021).
